In the Kinase Knowledgebase extract (Sharma et al. 2016) one finds IC50 data, which are given here for 81 molecules.

In the assay the target is MAPK14;MAPK11;MAPK12 (human) (UniProt Q16539). As to the kind of experiment: Inhibition of p38 Kinase Activity.
For `Cc1ccc(C(N)=O)cc1Nc1nc(N[C@@H]2CCN(C(C)C(C)C)C2)nc(N(C)CC(C)(C)C)n1` (stereo partly specified), the IC50 was under 1 µM.

As for `CC(CNc1nc(Nc2ccc3ncsc3c2)nc(N(C)C)n1)c1ccccc1` (stereo unspecified), the IC50 is under 10 µM.

With `Cc1ccc(C(N)=O)cc1Nc1nc(O)nc(NCC(C)c2ccccc2)n1` (stereo unspecified), the IC50 is under 1 µM.

Regarding `Cc1ccc(C(N)=O)cc1Nc1nc(N[C@H]2CCNC2)nc(SCC(C)C)n1`, the IC50 was under 1 µM.

The molecule `CONC(=O)c1ccc(C)c(Nc2nc(NCC3CCC(=O)N3)nc(N(C)CC(C)(C)C)n2)c1` (stereo unspecified) gave an IC50 of under 1 µM.

The molecule `Cc1ccc(C(N)=O)cc1Nc1nc(N[C@H]2CCN(Cc3cccc(Cl)c3)C2)nc(N(C)CC(C)C)n1` came in with an IC50 of under 1 µM.

Molecule `CC(CNc1nc(Nc2ccc3ncsc3c2)nc(N2CC3CC2CN3C(=O)Cc2ccc(Cl)c(Cl)c2)n1)c1ccccc1` (stereo unspecified) registered an IC50 of under 10 µM.

`CC(C)Oc1nc(NCC(C)c2ccccc2)nc(Nc2ccc3ncsc3c2)n1` (stereo unspecified) returned an IC50 of under 10 µM.

The molecule `Cc1ccc(C(N)=O)cc1Nc1nc(NCCc2ccc(F)cc2)nc(N[C@H]2CCNC2)n1` returned an IC50 of under 1 µM.

`Cc1ccc(C(N)=O)cc1Nc1nc(N[C@H]2CCN(Cc3ccc(O)cc3)C2)nc(N(C)CC(C)C)n1`: the IC50 is under 1 µM.

With `Cc1ccc(C(N)=O)cc1Nc1nc(N[C@H]2CCNC2)nc(N(C)CC2CCCC2)n1`, the IC50 was under 1 µM.

Molecule `Cc1ccc(C(N)=O)cc1Nc1nc(NCCC(C)(C)C)nc(N[C@@H]2CCNC2)n1` came in with an IC50 of under 1 µM.

In the case of `CNC(=O)c1ccc(C)c(Sc2nc(NCc3ccccn3)nc(N(C)CC(C)(C)C)n2)c1`, the IC50 was under 30 µM.

`CONC(=O)c1ccc(C)c(Nc2nc(NCCNc3ccccc3)nc(N(C)CC(C)(C)C)n2)c1` showed an IC50 of under 1 µM.

The molecule `CC1(C)C2CCC(CNc3nc(Nc4ccc5ncoc5c4)nc(N4CCN(C(=O)CCC(=O)O)CC4)n3)C1C2` (stereo unspecified) registered a concentration for half-maximal inhibition (IC50) of under 10 µM.

As for `Cc1ccc2c(c1Nc1nc(N[C@H]3CCNC3)nc(N(C)CC(C)(C)C)n1)CNC2=O`, the IC50 is under 1 µM.

Turning to `Cc1ccc(-c2n[nH]c(=O)[nH]2)cc1Nc1nc(N(C)CC(C)(C)C)nc(N2CCCN(C)CC2)n1`, the IC50 is under 1 µM.

For the molecule `Cc1ccc(C(N)=O)cc1Nc1nc(N[C@@H]2CCN(C(C)CC(C)C)C2)nc(N(C)CC(C)(C)C)n1` (stereo partly specified), the IC50 is under 1 µM.

On to `CCONC(=O)c1ccc(C)c(Nc2nc(N[C@H]3CCNC3)nc(N(C)CC(C)C)n2)c1`, for which the IC50 is under 1 µM.

In the case of `CNC(=O)c1ccc(C)c(Nc2nc(N[C@H]3CCNC3)nc(N(C)CC3CCCC3)n2)c1`, the IC50 is under 1 µM.

For the molecule `Cc1ccc(C(N)=O)cc1Nc1cc(N(C)CC(C)C)nc(N[C@H]2CCNC2)n1`, the IC50 is under 1 µM.

On to `Cc1ccc(CNC(C)C)cc1Nc1nc(N[C@H]2CCNC2)nc(N(C)CC(C)(C)C)n1`, for which the IC50 is under 1 µM.

Molecule `Cc1ccc(Nc2nc(NC[C@@H]3CC[C@H]4C[C@@H]3C4(C)C)nc(N3CCCNCC3)n2)cc1C(N)=O` came in with an IC50 of under 10 µM.

`CCONC(=O)c1ccc(C)c(Nc2nc(N)nc(N(C)CC(C)(C)C)n2)c1` yielded an IC50 of under 1 µM.

As for `CNC(=O)c1ccc(C)c(Oc2nc(NCc3ccccn3)nc(N(C)CC(C)(C)C)n2)c1`, the IC50 is under 30 µM.

In turn, `Cc1ccc(C(N)=O)cc1Nc1nc(N[C@@H]2CCNC2)nc(N(C)CC2(C)CCCC2)n1` came in with an IC50 of under 1 µM.

In turn, `CNc1nc(NCc2ccccc2OC)nc(Nc2ccc3ncsc3c2)n1` yielded an IC50 of under 10 µM.

In turn, `CC(=O)Nc1ccc(C)c(Nc2nc(NCC(C)(C)C)nc(N[C@H]3CCNC3)n2)c1` returned an IC50 of under 1 µM.

In turn, `CONC(=O)c1ccc(C)c(Nc2nc(N[C@H]3CCN(C(C)C)C3)nc(N(C)CC(C)(C)C)n2)c1` returned an IC50 of under 1 µM.

On to `CONC(=O)c1ccc(C)c(Nc2nc(F)cc(N(C)CC(C)(C)C)n2)c1`, for which the IC50 was under 1 µM.

The molecule `CCNC(=O)c1ccc(C)c(Nc2nc(N[C@@H]3CCN(C4=CC(=O)CC(C)(C)C4)C3)nc(N(C)CC(C)(C)C)n2)c1` showed an IC50 of under 1 µM.

`Cc1ccc(C(N)=O)cc1Nc1nc(NC[C@@H]2CC[C@H]3C[C@@H]2C3(C)C)nc(N[C@@H]2CCNC2)n1` gave an IC50 of under 1 µM.

`Cc1ccc(C(N)=O)cc1Nc1nc(NC2CNC2)nc(N(C)CC(C)(C)C)n1` had an IC50 of under 1 µM.

Consider `Cc1ccc(C(N)=O)cc1Nc1nc(N[C@H]2CCN(C3CCCC3)C2)nc(N(C)CC(C)C)n1`, for which the IC50 was under 1 µM.

On to `COC(=O)c1ccc(C)c(Nc2nc(N[C@H]3CCNC3)nc(N(C)CC(C)(C)C)n2)c1`, for which the IC50 was under 1 µM.

Regarding `Cc1ccc(C(N)=O)cc1Nc1nc(N[C@H]2CCN(C3CCCCC3)C2)nc(N(C)CC(C)(C)C)n1`, the IC50 was under 1 µM.

`COCCNC(=O)c1ccc(C)c(Nc2nc(N[C@H]3CCNC3)nc(N(C)CC(C)(C)C)n2)c1`: the IC50 was under 1 µM.

Molecule `CONC(=O)c1ccc(C)c(Nc2nc(NCc3cccc(F)c3)nc(N(C)CC(C)(C)C)n2)c1` yielded an IC50 of under 1 µM.

In the case of `CONC(=O)c1ccc(C)c(Nc2nc(Cl)nc(N(C)CC(C)(C)C)n2)c1`, the IC50 is under 1 µM.

`CCc1ccc(C(N)=O)cc1Nc1nc(NCC(C)(C)C)nc(N[C@H]2CCNC2)n1`: the IC50 was under 1 µM.

`Cc1ccc(C(N)=O)cc1Nc1nc(N[C@H]2CCN(C(C)C)C2)nc(N(C)CC(C)C)n1` displayed an IC50 of under 1 µM.

Take `C=CCN1CC[C@H](Nc2nc(Nc3cc(C(=O)NC(C)C)ccc3C)nc(N(C)CC3CCCC3)n2)C1`: the IC50 is under 1 µM.

Molecule `Cc1ccc(C(N)=O)cc1Nc1nc(N[C@H]2CCN(Cc3cccc(F)c3)C2)nc(N(C)CC(C)C)n1` displayed an IC50 of under 1 µM.

With `CCNC(=O)c1ccc(C)c(Nc2nc(N[C@H]3CCNC3)nc(N(C)CC3CCCC3)n2)c1`, the IC50 is under 1 µM.

`CONC(=O)c1ccc(C)c(Nc2nc(NCCN3CCCC3)nc(N(C)CC(C)(C)C)n2)c1` gave an IC50 of under 1 µM.

The molecule `Cc1ccccc1NC(=S)N(C)CCCN(C)c1nc(NCC(C)c2ccccc2)nc(Nc2ccc3ncsc3c2)n1` (stereo unspecified) displayed a concentration for half-maximal inhibition (IC50) of under 10 µM.

For the molecule `Cc1ccc(C(N)=O)cc1Nc1nc(NCC23CC4CC(CC(C4)C2)C3)nc(NC2CCNC2)n1` (stereo unspecified), the half-inhibitory concentration (IC50) is under 1 µM.

Molecule `CC(CNc1nc(Nc2ccc3ncsc3c2)nc(N2CCN(C(=N)N)CC2)n1)c1ccccc1` (stereo unspecified) returned an IC50 of under 10 µM.

With `CNCCN(C)c1nc(NCC(C)c2ccccc2)nc(Oc2ccc3ncsc3c2)n1` (stereo unspecified), the IC50 is under 10 µM.

Regarding `CC(=O)N1CC2CC1CN2c1nc(NCC(C)c2ccccc2)nc(Nc2ccc3ncsc3c2)n1` (stereo unspecified), the 50% inhibitory concentration (IC50) is under 10 µM.

`C[C@H](CNc1nc(NCCO)nc(Nc2ccc3ncsc3c2)n1)c1ccccc1` came in with an IC50 of under 10 µM.

`Cc1ccc(C(N)=O)cc1Nc1nc(N[C@H]2CCN(Cc3ccc(Cl)cc3)C2)nc(N(C)CC(C)C)n1`: the IC50 was under 1 µM.

Molecule `Cc1ccc(-c2nn(C)c(=O)[nH]2)cc1Nc1nc(N[C@@H]2CCNC2)nc(N(C)CC(C)(C)C)n1` showed an IC50 of under 1 µM.

The molecule `CNCCN(C)c1nc(NC[C@@H](C)c2ccccc2)nc(-n2cnc3ccccc32)n1` registered an IC50 of under 10 µM.

For the molecule `CNC(=O)c1ccc(C)c(Nc2nc(NC3CCN(Cc4ccccc4)C3)nc(N(C)CC(C)C)n2)c1` (stereo unspecified), the IC50 was under 1 µM.

The molecule `CNC(=O)c1ccc(C)c(Nc2nc(N[C@H]3CCNC3)nc(SCC(C)C)n2)c1` came in with an IC50 of under 1 µM.

Take `CNc1nc(Nc2cc(C(=O)NOC)ccc2C)nc(N(C)CC(C)(C)C)n1`: the IC50 is under 1 µM.

Turning to `CC(C)(Cc1ccccc1)Nc1nc(Nc2ccc3ncsc3c2)nc(N2CCNCC2)n1`, the IC50 is under 10 µM.

In turn, `CONC(=O)c1ccc(C)c(Sc2nc(N[C@@H]3CCNC3)nc(N(C)CC(C)(C)C)n2)c1` came in with an IC50 of under 30 µM.

`CC(C)OCCNc1cc(N2CCNCC2)nc(-n2cnc3ccccc32)n1` showed an IC50 of under 10 µM.

Take `Cc1ccc(C(N)=O)cc1Nc1nc(N[C@H]2CCN(S(C)(=O)=O)C2)nc(N(C)CC(C)C)n1`: the IC50 is under 1 µM.

Take `Cc1ccc(C(N)=O)cc1Nc1nc(NC[C@H]2CCCN2)nc(N(C)CC(C)C)n1`: the IC50 was under 1 µM.

Take `COC1CCCC(C(=O)N2CCN(c3nc(NCC(C)c4ccccc4)nc(Nc4ccc5ncsc5c4)n3)CC2)C1` (stereo unspecified): the IC50 is under 10 µM.

As for `CONC(=O)c1ccc(C)c(Sc2nc(N(C)CC(C)(C)C)nc(N3CCCN(C)CC3)n2)c1`, the IC50 was under 30 µM.

Turning to `Cc1ccc(C(N)=O)cc1Nc1nc(N[C@H]2CCN(Cc3ccccn3)C2)nc(N(C)CC(C)C)n1`, the IC50 is under 1 µM.

For `CONC(=O)c1ccc(C)c(Nc2nc(NCCn3cccn3)nc(N(C)CC(C)(C)C)n2)c1`, the IC50 is under 1 µM.

Take `COc1ncc(CN2CC[C@@H](Nc3nc(Nc4cc(C(N)=O)ccc4C)nc(N(C)CC(C)C)n3)C2)c(OC)n1`: the half-inhibitory concentration (IC50) was under 1 µM.

`CC(CNc1nc(Nc2ccc3ncsc3c2)nc(N(C)CCCN(C)C(=S)NC2CCCCC2)n1)c1ccccc1` (stereo unspecified) returned a half-maximal inhibitory concentration (IC50) of under 10 µM.

In turn, `CN(CCN(C)c1nc(NCc2ccc(F)cc2F)nc(-n2cnc3ccccc32)n1)C(=O)CCC(=O)O` came in with an IC50 of under 10 µM.

Molecule `Cn1ccc2cc(Nc3nc(Cl)nc(NC[C@@H]4CC[C@H]5C[C@@H]4C5(C)C)n3)ccc21` registered an IC50 of under 10 µM.

On to `Cc1ccc(C(N)=O)cc1Nc1nc(N[C@H]2CCNC2)nc(N(C)CC(C)c2ccccc2)n1` (stereo partly specified), for which the IC50 was under 1 µM.

`CCCNC(=O)N1CC[C@@H](Nc2nc(Nc3cc(C(=O)NOC)ccc3C)nc(N(C)CC(C)(C)C)n2)C1` gave an IC50 of under 1 µM.

As for `CC1(C)[C@H]2CC[C@H](CNc3nc(Cl)nc(Nc4ccc5ncsc5c4)n3)[C@@H]1C2`, the IC50 was under 10 µM.

`Cc1ccc2c(c1)ncn2-c1nc(F)cc(NCCOC(C)C)n1` showed an IC50 of under 10 µM.

For the molecule `O=C(O)CCC(=O)N1CCN(c2nc(Nc3ccc4ncsc4c3)nc(N3CCc4ccccc4C3)n2)CC1`, the IC50 is under 10 µM.

In the case of `CC(CNc1nc(Nc2ccc3ncsc3c2)nc(N2CCN(S(=O)(=O)N(C)C)CC2)n1)c1ccccc1` (stereo unspecified), the IC50 was under 10 µM.

In turn, `CONC(=O)c1ccc(C)c(Nc2nc(N(C)CC(C)(C)C)nc(N3CCNCC3)n2)c1` yielded an IC50 of under 1 µM.

For `CCCc1nc(NCc2ccc(S(N)(=O)=O)cc2)nc(Nc2cccc(-c3ccccc3)c2)n1`, the IC50 was under 10 µM.

Turning to `Cc1ccc(C(=O)Nc2ccccc2)cc1Nc1nc(N[C@H]2CCNC2)nc(N(C)CC(C)(C)C)n1`, the IC50 was under 1 µM.

The molecule `CN(CCN(C)c1nc(NCC2CCC3CC2C3(C)C)nc(Nc2ccc3ncccc3c2)n1)C(=O)CCC(=O)O` (stereo unspecified) came in with an IC50 of under 10 µM.

Take `CNc1nc(NCc2ccc(F)cc2F)nc(Nc2ccc3ncsc3c2)n1`: the IC50 was under 10 µM.

One may read the IC50 as the point on the concentration scale where inhibition reaches its midpoint. Lower therefore signals greater potency in that assay.
